Test results as given in ChEMBL document CHEMBL3244190, “2,3-Dihydroxy-9-amino-9,10-dihydrophenanthrene, a rigid congener of dopamine and isoapomorphine” (J Med Chem, 1978).
The source made the active and inactive calls. No cut-off for these calls is given here.

How the values were obtained:
[1] = target: T1, Adenylate cyclase (Rattus norvegicus) (UniProt D4A3N4+P26770+Q04400+P26769+Q03343+P40146+Q8CFM9+P21932); test: Activation of rat striatal homogenate adenylate cyclase assessed as cAMP level at 100 uM after 2.5 mins relative to control
[2] = system: Canis familiaris; test: Induction of vasodilation in intraarterially dosed anesthetized Mongrel dog at 3 umol; type: functional, organism-based; conditions: Canis lupus familiaris
[3] = target: T1, Adenylate cyclase (Rattus norvegicus); test: Activation of rat striatal homogenate adenylate cyclase assessed as cAMP level at 10 uM after 2.5 mins relative to control
[4] = target: T1, Adenylate cyclase (Rattus norvegicus); test: Inhibition of dopamine-induced adenylate cyclase activation in rat striatal homogenate assessed as enzyme activity at 100 uM after 2.5 mins relative to control; design: scale not given: the % may be the effect or the level left

SMILES	Activity [1] [%]	Activity [2]	Activity [3] [%]	Activity [4] [%]
NCCc1ccc(O)c(O)c1	150			
NC1Cc2cc(O)c(O)cc2-c2ccccc21 (stereo not given)	92	inactive	100	149
